For 20 compounds, IC50 results are on record in patent US9518052B2, “Pyrazolopyridines and pyrazolopyrimidines” (Pfizer Inc., priority 2014, dated 2016).

Common to all, as to type: biochemical
Common to all, as to settings: Caliper assay at 1 mM ATP

In one assay the target is JAK1 (Homo sapiens (Human), UniProt P23458). The assay can be described thus: JAK Caliper Enzyme Assay at 1 mM ATP (JAK1).
A further assay deals with JAK2 (Homo sapiens (Human), UniProt O60674). The assay can be described thus: JAK Caliper Enzyme Assay at 1 mM ATP (JAK2).
Sequence of JAK2 (O60674 whole entry, species assumed): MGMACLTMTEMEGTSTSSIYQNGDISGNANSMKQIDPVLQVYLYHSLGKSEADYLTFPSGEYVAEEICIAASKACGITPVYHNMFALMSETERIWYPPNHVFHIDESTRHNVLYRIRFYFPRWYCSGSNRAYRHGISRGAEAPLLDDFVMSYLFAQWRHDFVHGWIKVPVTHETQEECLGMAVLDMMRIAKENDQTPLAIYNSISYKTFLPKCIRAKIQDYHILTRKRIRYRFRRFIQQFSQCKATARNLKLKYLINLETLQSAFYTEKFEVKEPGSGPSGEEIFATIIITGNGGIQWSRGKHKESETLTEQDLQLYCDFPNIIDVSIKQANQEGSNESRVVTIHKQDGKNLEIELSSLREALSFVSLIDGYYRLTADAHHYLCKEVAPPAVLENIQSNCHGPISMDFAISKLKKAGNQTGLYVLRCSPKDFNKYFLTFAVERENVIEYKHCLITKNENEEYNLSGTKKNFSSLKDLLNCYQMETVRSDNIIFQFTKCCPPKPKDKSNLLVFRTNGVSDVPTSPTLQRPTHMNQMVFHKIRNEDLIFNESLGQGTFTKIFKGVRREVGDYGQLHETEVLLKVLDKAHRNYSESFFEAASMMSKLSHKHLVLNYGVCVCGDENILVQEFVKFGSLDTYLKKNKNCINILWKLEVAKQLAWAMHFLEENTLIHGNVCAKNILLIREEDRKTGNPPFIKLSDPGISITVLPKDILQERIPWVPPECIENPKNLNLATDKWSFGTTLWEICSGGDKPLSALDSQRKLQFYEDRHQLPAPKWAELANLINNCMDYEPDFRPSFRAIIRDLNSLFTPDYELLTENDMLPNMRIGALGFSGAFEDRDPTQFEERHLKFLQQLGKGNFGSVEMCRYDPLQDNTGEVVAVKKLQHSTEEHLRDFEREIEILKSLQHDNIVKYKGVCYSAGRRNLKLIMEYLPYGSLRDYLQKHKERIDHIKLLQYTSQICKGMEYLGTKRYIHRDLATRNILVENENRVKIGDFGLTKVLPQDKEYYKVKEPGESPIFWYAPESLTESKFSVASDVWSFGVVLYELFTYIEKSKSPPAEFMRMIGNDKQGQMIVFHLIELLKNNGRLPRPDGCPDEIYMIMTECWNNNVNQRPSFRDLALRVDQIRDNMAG
Another assay addresses JAK3 (Homo sapiens (Human), UniProt P52333). As to the kind of experiment: JAK Caliper Enzyme Assay at 1 mM ATP (JAK3).
The target in another assay is TYK2 (Homo sapiens (Human), UniProt P29597). As to the kind of experiment: JAK Caliper Enzyme Assay at 1 mM ATP (TYK2).
Sequence of TYK2 (P29597 whole entry, species assumed): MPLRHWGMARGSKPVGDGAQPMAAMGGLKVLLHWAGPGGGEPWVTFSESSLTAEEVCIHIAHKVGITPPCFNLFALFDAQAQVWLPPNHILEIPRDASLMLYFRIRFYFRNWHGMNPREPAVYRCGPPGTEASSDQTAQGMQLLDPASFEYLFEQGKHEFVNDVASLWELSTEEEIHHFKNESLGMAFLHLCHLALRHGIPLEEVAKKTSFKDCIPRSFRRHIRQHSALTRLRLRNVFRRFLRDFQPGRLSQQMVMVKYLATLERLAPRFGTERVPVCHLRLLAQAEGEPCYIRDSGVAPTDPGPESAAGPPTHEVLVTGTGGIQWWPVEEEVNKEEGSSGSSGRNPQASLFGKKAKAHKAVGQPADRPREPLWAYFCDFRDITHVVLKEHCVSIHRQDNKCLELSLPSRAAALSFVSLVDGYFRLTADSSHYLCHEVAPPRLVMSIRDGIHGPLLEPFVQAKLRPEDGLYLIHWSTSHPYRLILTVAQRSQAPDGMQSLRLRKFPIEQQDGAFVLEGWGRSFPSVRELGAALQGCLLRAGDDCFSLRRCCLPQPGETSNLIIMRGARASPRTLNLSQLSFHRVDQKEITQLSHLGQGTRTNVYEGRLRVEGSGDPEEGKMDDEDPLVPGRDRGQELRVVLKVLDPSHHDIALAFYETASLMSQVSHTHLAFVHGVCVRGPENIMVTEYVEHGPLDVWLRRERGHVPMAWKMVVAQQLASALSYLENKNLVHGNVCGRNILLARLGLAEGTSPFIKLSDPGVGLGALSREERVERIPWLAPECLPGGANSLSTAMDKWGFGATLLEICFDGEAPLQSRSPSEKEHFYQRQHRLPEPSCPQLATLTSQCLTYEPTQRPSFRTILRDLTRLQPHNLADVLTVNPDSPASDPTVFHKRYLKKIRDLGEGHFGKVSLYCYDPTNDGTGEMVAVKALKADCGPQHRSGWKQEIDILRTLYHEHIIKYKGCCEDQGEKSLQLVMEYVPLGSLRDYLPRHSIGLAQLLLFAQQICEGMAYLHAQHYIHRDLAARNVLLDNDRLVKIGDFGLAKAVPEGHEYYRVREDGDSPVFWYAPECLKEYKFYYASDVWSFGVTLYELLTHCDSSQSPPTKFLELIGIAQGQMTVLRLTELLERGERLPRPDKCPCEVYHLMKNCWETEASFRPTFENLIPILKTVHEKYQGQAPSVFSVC

Counter-ions that a name gives are not always drawn.

Sequence of JAK3 (P52333 whole entry, species assumed): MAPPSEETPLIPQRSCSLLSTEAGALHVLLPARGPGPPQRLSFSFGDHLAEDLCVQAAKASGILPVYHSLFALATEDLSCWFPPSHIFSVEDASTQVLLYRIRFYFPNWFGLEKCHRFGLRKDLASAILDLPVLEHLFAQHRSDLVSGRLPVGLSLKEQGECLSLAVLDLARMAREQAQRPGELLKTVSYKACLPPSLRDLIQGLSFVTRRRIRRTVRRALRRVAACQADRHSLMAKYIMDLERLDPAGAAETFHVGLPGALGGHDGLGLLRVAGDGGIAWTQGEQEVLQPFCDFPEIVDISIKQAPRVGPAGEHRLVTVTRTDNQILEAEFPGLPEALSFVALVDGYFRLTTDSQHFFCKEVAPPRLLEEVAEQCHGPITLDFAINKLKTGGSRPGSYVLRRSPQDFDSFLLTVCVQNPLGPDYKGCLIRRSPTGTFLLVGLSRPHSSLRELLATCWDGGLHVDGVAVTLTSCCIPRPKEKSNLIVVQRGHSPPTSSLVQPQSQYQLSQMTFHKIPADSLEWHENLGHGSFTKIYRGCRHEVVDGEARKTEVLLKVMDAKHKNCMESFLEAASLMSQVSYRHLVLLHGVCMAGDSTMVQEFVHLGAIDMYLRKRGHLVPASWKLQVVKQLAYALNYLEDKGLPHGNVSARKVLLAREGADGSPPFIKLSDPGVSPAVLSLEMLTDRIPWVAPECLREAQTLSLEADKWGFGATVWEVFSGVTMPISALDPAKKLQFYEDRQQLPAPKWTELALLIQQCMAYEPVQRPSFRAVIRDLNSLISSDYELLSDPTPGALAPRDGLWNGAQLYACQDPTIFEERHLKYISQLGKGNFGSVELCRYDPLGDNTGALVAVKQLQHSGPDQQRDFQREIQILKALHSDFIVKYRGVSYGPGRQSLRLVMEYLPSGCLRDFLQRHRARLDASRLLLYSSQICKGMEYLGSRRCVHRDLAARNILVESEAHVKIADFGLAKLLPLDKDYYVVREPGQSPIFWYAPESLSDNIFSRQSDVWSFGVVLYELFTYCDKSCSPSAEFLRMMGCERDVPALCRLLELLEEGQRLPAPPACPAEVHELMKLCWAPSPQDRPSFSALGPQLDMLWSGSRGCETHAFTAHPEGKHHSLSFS
Sequence of JAK1 (P23458 whole entry, species assumed): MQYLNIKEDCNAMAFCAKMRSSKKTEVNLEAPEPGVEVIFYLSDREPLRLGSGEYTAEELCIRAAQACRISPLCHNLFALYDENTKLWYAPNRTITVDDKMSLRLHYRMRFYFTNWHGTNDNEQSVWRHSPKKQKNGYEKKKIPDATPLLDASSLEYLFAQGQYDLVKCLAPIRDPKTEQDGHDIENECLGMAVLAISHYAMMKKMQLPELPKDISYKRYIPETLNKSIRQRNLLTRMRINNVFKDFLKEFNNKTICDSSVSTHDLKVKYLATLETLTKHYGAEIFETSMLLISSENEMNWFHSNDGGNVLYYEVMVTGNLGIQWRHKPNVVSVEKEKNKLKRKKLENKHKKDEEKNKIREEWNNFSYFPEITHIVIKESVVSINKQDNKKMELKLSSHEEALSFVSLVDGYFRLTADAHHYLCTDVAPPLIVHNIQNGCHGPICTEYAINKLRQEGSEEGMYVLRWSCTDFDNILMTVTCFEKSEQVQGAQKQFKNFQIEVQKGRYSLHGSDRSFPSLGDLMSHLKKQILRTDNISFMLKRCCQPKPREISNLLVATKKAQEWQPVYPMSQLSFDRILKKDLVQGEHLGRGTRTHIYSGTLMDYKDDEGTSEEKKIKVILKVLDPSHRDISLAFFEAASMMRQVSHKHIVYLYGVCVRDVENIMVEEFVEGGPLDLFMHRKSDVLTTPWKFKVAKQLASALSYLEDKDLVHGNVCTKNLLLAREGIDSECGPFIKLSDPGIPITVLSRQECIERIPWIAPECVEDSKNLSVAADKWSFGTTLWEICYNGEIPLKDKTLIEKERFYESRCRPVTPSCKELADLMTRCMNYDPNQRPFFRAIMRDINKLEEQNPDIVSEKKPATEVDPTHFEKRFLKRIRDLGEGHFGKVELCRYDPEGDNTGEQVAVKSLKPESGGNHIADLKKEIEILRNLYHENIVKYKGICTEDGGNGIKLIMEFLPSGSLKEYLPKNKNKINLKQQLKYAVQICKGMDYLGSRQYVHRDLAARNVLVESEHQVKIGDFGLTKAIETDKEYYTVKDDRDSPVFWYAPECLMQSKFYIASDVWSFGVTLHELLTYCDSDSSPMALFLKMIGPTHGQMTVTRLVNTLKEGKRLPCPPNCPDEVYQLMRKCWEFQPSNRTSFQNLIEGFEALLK

`CNC(=O)c1n[nH]c2nc(-c3cc(F)c(O)cc3CC(F)(F)F)nc(NCc3ccccc3N(C)S(N)(=O)=O)c12` [Example 109, 6-(5-Fluoro-4-hydroxy-2-(2,2,2-trifluoroethyl)phenyl)-N-methyl-4-((2-(methyl(sulfamoyl)amino)benzyl)amino)-1H-pyrazolo[3,4-d]pyrimidine-3-carboxamide]: the IC50 against JAK1 was 6.4 nM; on JAK2, 31.2 nM; against JAK3 it was 107 nM; against TYK2, 674 nM.
On to `CC(C)CNc1nc(-c2cc(F)c(O)cc2CC(F)(F)F)nc2[nH]ncc12` [Example 153, 2-fluoro-4-{4-[(2-methyl-propyl)amino]-1H-pyrazolo[3,4-d]pyrimidin-6-yl}-5-(2,2,2-trifluoroethyl)phenol], for which the IC50 was 74 nM against JAK1, 241 nM against JAK2, 207 nM against JAK3 and 7460 nM at TYK2.
As to `CN(c1ccccc1CNCc1nc(-c2cc(F)c(O)cc2CC(F)(F)F)cc2[nH]ncc12)S(C)(=O)=O` [Example 149], the IC50 worked out at 2.7 nM against JAK1, 14.5 nM at JAK2, 22.7 nM against JAK3 and 764 nM against TYK2.
For `CCc1cc(O)c(F)cc1-c1cc2[nH]nc(-c3ncc[nH]3)c2c(NCc2ccccc2N(C)S(C)(=O)=O)n1` [Example 157, N-[2-({[6-(2-Ethyl-5-fluoro-4-hydroxyphenyl)-3-(1H-imidazol-2-yl)-1H-pyrazolo[4,3-c]pyridin-4-yl]amino}methyl)phenyl]-N-methylmethanesulfonamide], in that order: 3.4 nM, 15 nM, 76.5 nM and 11.7 nM.
The corresponding values for `CCN(c1ccc(C)cc1CNc1nc(-c2cc(F)c(O)cc2CC(F)(F)F)cc2[nH]nc(C(N)=O)c12)S(C)(=O)=O` [Example 91, 4-({2-[ethyl(methylsulfonyl)amino]-5-methylbenzyl}amino)-6-[5-fluoro-4-hydroxy-2-(2,2,2-trifluoroethyl)phenyl]-1H-pyrazolo[4,3-c]pyridine-3-carboxamide] are 28.7 nM, 128 nM, 462 nM and 865 nM.
On to `CCS(=O)(=O)N(C)c1ccccc1CNc1nc(-c2cc(F)c(O)cc2CC(F)(F)F)cc2[nH]nc(C(N)=O)c12` [Example 85, 6-(5-fluoro-4-hydroxy-2-(2,2,2-trifluoroethyl)phenyl)-4-((2-(N-methylethyl-sulfonamido)benzyl)-amino)-1H-pyrazolo[4,3-c]pyridine-3-carboxamide], for which the 50% inhibitory concentration (IC50) on JAK1 worked out at 7.8 nM; against JAK2 it was 47.2 nM; at JAK3 it was 156 nM; on TYK2, 81.4 nM.
With `CCc1cc(O)c(F)cc1-c1cc2[nH]ncc2c(NCc2ccccc2N(CC)S(=O)(=O)CC)n1` [Example 136, N-ethyl-N-[2-({[6-(2-ethyl-5-fluoro-4-hydroxyphenyl)-1H-pyrazolo[4,3-c]pyridin-4-yl]amino}methyl)phenyl]ethanesulfonamide hydrochloride], the IC50 is 0.8 nM on JAK1, 4.3 nM at JAK2, 22.4 nM against JAK3 and 8.7 nM against TYK2.
The corresponding values for `CCc1cc(O)c(F)cc1-c1cc2[nH]nc(C(=O)NC)c2c(NCc2cc(Cl)ccc2N(C)S(C)(=O)=O)n1` [Example 6, 4-({5-chloro-2-[methyl(methyl-sulfonyl)amino]benzyl}amino)-6-(2-ethyl-5-fluoro-4-hydroxy-phenyl)-N-methyl-1H-pyrazolo[4,3-c]pyridine-3-carboxamide] are 3.1 nM, 15.8 nM, 84.9 nM and 15.3 nM.
For `CN(c1ccc(Cl)cc1CNc1nc(-c2cc(F)c(O)cc2CC(F)(F)F)cc2[nH]nc(C(N)=O)c12)S(C)(=O)=O` [Example 89, 4-({5-chloro-2-[methyl(methylsulfonyl)amino]benzyl}amino)-6-[5-fluoro-4-hydroxy-2-(2,2,2-trifluoroethyl)phenyl]-1H-pyrazolo[4,3-c]pyridine-3-carboxamide], the IC50 worked out at 14.6 nM against JAK1, 57.1 nM against JAK2, 212 nM on JAK3 and 917 nM against TYK2.
Take `CCN(c1ncc(F)cc1CNc1nc(-c2cc(F)c(O)cc2CC(F)(F)F)cc2[nH]nc(C(N)=O)c12)S(C)(=O)=O` [Example 79, 4-[({2-[ethyl(methylsulfonyl)amino]-5-fluoropyridin-3-yl}methyl)amino]-6-[5-fluoro-4-hydroxy-2-(2,2,2-trifluoroethyl)phenyl]-1H-pyrazolo[4,3-c]pyridine-3-carboxamide]: the IC50 against JAK1 was 10.7 nM; against JAK2, 59.1 nM; on JAK3, 175 nM; on TYK2 it was 698 nM.
The corresponding values for `CCc1cc(O)ccc1-c1cc2[nH]ncc2c(N2CCc3c(cccc3NS(C)(=O)=O)C2)n1` [Example 123, N-{2-[6-(2-ethyl-4-hydroxyphenyl)-1H-pyrazolo[4,3-c]pyridin-4-yl]-1,2,3,4-tetrahydroisoquinolin-5-yl}methanesulfonamide formate] are 3.3 nM, 4.5 nM, 9.5 nM and 82.1 nM.
For `CN(c1ccccc1CNc1nc(-c2cc(F)c(O)cc2CC(F)(F)F)cc2[nH]nc(C(N)=O)c12)S(=O)(=O)c1ccc(N2CCOCC2)nc1` [Example 65, 6-[5-fluoro-4-hydroxy-2-(2,2,2-trifluoroethyl)phenyl]-4-{[2-(methyl{[6-(morpholin-4-yl)pyridin-3-yl]sulfonyl}amino)benzyl]amino}-1H-pyrazolo[4,3-c]pyridine-3-carboxamide], in that order: 23.3 nM, 83.8 nM, 283 nM and 126 nM.
The corresponding values for `CCc1cc(O)c(F)cc1-c1cc2[nH]ncc2c(NCc2c(F)cccc2N(C)S(C)(=O)=O)n1` [Example 134, N-[2-({[6-(2-ethyl-5-fluoro-4-hydroxyphenyl)-1H-pyrazolo[4,3-c]pyridin-4-yl]amino}methyl)-3-fluorophenyl]-N-methylmethanesulfonamide hydrochloride] are under 0.5 nM, 1.7 nM, 7.6 nM and 20.3 nM.
As to `CNC(=O)c1n[nH]c2cc(-c3cc(F)c(O)cc3CC(F)(F)F)nc(NCc3nccnc3N(C)S(C)(=O)=O)c12` [Example 51, 6-[5-fluoro-4-hydroxy-2-(2,2,2-trifluoroethyl)phenyl]-N-methyl-4-[({3-[methyl(methylsulfonyl)amino]pyrazin-2-yl}methyl)amino]-1H-pyrazolo[4,3-c]pyridine-3-carboxamide], the IC50 is 3.5 nM at JAK1, 20.8 nM at JAK2, 66.9 nM against JAK3 and 226 nM at TYK2.
Consider `CCc1cc(O)c(F)cc1-c1cc2[nH]nc(C(N)=O)c2c(NCc2ccc(O)cc2N(C)S(C)(=O)=O)n1` [Example 30, 6-(2-Ethyl-5-fluoro-4-hydroxyphenyl)-4-({4-hydroxy-2-[methyl(methylsulfonyl)amino]benzyl}amino)-1H-pyrazolo[4,3-c]pyridine-3-carboxamide], for which the IC50 came to 1 nM on JAK1, 5.8 nM on JAK2, 23.3 nM at JAK3 and 29 nM against TYK2.
In the case of `CCc1cc(O)c(F)cc1-c1cc2[nH]nc(C(=O)NC)c2c(NCc2ccccc2N(CC)S(=O)(=O)CC)n1` [Example 2, 4-({2-[ethyl(ethylsulfonyl)-amino]benzyl}amino)-6-(2-ethyl-5-fluoro-4-hydroxyphenyl)-N-methyl-1H-pyrazolo[4,3-c]pyridine-3-carboxamide], the IC50 stood at 3.4 nM on JAK1, 17 nM on JAK2, 84.5 nM against JAK3 and 12.1 nM on TYK2.
The corresponding values for `CCCN(c1ccccc1CNc1nc(-c2cc(F)c(O)cc2CC)cc2[nH]ncc12)S(C)(=O)=O` [Example 137, N-[2-({[6-(2-Ethyl-5-fluoro-4-hydroxyphenyl)-1H-pyrazolo[4,3-c]pyridin-4-yl]amino}methyl)phenyl]-N-propylmethanesulfonamide] are under 0.1 nM, 0.3 nM, 3.3 nM and 45.4 nM.
`CCc1cc(O)c(F)cc1-c1cc2[nH]nc(C(=O)NC)c2c(NCC(C)C)n1` [Example 5, 6-(2-ethyl-5-fluoro-4-hydroxyphenyl)-N-methyl-4-[(2-methylpropyl)amino]-1H-pyrazolo[4,3-c]pyridine-3-carboxamide]: the IC50 stood at 2.1 nM against JAK1, 7.5 nM at JAK2, 31.9 nM against JAK3 and 7 nM at TYK2.
`CCc1cc(O)c(F)cc1-c1cc2[nH]nc(-n3cccn3)c2c(NCc2ccccc2N(C)S(C)(=O)=O)n1` [Example 162, N-[2-({[6-(2-Ethyl-5-fluoro-4-hydroxyphenyl)-3-(1H-pyrazol-1-yl)-1H-pyrazolo[4,3-c]pyridin-4-yl]amino}methyl)phenyl]-N-methylmethanesulfonamide]: the IC50 on JAK1 was determined as 4.1 nM; against JAK2, 23.6 nM; against JAK3, 90.6 nM; against TYK2, 15.4 nM.
`CCc1cc(O)c(F)cc1-c1cc2[nH]nc(C(=O)NC)c2c(NCc2cc(O)ccc2N(C)S(C)(=O)=O)n1` [Example 31, 6-(2-Ethyl-5-fluoro-4-hydroxyphenyl)-4-({5-hydroxy-2-[methyl(methylsulfonyl)amino]benzyl}amino)-N-methyl-1H-pyrazolo[4,3-c]pyridine-3-carboxamide]: the half-inhibitory concentration (IC50) against JAK1 amounted to 1.3 nM; against JAK2, 7 nM; against JAK3, 33 nM; at TYK2, 4.6 nM.

Usually IC50 stands for the concentration that gives 50% inhibition.
